Reference: patent publication US6924252B1, “Weed control” (Aventis Agriculture Limited, priority 1999, dated 2005)

How the values were obtained:
Assay type in all cases: in vivo
Setaria viridis [1] = assay: Glasshouse pot test, soil surface application, visual % reduction (Example 1); conditions: 14 DAT
Method: (§1) 7×7 cm^2 pots were filled with a non-sterile loam soil. Weed seeds (Amaranthus retroflexus, Echinochloa crus galli and Setaria viridis) were placed in three separate shallow wells with a maize seed (Pioneer 3394) inserted to a depth of 4 cm in between in each pot and the seeds lightly covered with soil. A 1 ml solution of technical isoxaflutole, suitably diluted to give a dose equivalent to 6.25, 12.5, 25, 50 and 100 g/ha in acetonitrile, was pipetted evenly on the soil surface of pots (replicated 10 times), according to the following regime. On day 1, a set of 5 pots were treated with 5 dose rates (6.25-100 g/ha) and set aside in the glasshouse. At the same time, on day 1 a second set of 4 pots were with 4 dose rates (treatment A. 6.25-50 g/ha) along with a third set of 3 pots treated with 3 dose rates (treatment B: 6.25-25 g/ha). On day 2 each of the second and third pots were treated again the pots receiving identical treatments A and B and second set of pots set aside in the glasshouse. On day 3 each of the third set of pots were treated again, the pots receiving identical treatment B. On day 4 each of the third set of pots were treated, the pots receiving identical treatment B and the pots set aside in the glasshouse. The pots were maintained in a glasshouse, with overhead watering (3×daily) and supplementary lighting. Visual assessment of % reduction, compared to untreated control plants was recorded 14 days after treatment. The results (average of 10 replicates) arm shown on Table 1, where the dosing regime refers to the number of daily applications followed by the dose of compound on each day.

Echinochloa crus galli = assay: as above; conditions: 14 DAT
Method: as §1

Amaranthus retroflexus [2] = assay: as above; conditions: 14 DAT
Method: as §1

weeds = assay: Activity on weeds after spraying on sown maize (Example 3); conditions: 105 g/ha, observed after 3 weeks
Excerpt: Maize is sown and then grown up in area where weeds and weed seeds are present. The weeds are a selection from: Alopecurus myosuroides, Avena fatua, Digitaria sanguinalis, Echinochloa crus-galli, Eleusine indica, Lolium multiflorum, Setaria viridis, Sorghum halepense, Cyperus esculentus, Cyperus iria, Cyperus rotundus, Eleocharis acicularis, Abutilon theophrasti, Amaranthus retroflexus, Bidens pilosa, Chenopodium album, Galium aparine, Ipomgoea purpurea, Lamium purpureum, Matricaria inodora, Sesbania […], Sinapis arvensis, Solanum nigrum, Stellaria media, Veronica hederifolia, Veronica […], Viola arvensis and Xanthium strumarium. […] The amounts of isoxazole of formula (I) and DKN were measured after 4 days in a 5 cm deep soil core around the seed or seedling. The weight ratio of isoxazole: […]

Setaria viridis [3] = assay: Sequential soil surface application on plots (Example 5); conditions: 14 DAT
Excerpt: (§2) Maize is sown and grown up in an area where weeds and weed seedlings are present. The weeds are Amaranthus retroflexus, Echinochloa crus-galli and Setaria viridis. Solutions of isoxazole in acetonitrile were applied directly to the soil surface at dose rates of 100, 50 and 25 g/ha to plots A, B and C respectively. 1 DAT dose rates of 50 and 25 g/ha were applied to plots B and C respectively, 2 and 3 DAT a dose rate of 25 g/ha was applied to plot C.
(§3) Activity of the isoxazole on maize and weed species was observed 14 DAT.

Amaranthus retroflexus [4] = assay: as above; conditions: 14 DAT
Excerpt: as §2, §3

Echinochloa crus-galli = assay: as above; conditions: 14 DAT
Excerpt: as §2, §3

Maize [5] = assay: as above; conditions: 14 DAT
Excerpt: as §2, §3

Maize [6] = assay: Activity on crop after spraying on sown maize (Example 3); conditions: 105 g/ha, observed after 3 weeks
Excerpt: Maize is sown and then grown up in area where weeds and weed seeds are present. The weeds are a selection from: Alopecurus myosuroides, Avena fatua, Digitaria sanguinalis, Echinochloa crus-galli, Eleusine indica, Lolium multiflorum, Setaria viridis, Sorghum halepense, Cyperus esculentus, Cyperus iria, Cyperus rotundus, Eleocharis acicularis, Abutilon theophrasti, Amaranthus retroflexus, Bidens pilosa, Chenopodium album, Galium aparine, Ipomgoea purpurea, Lamium purpureum, Matricaria inodora, Sesbania exalta, Sinapis arvensis, Solanum nigrum, Stellaria media, Veronica hederifolia, Veronica Persia, Viola arvensis and Xanthium strumarium.
After one week sowing the maize, isoxazole is sprayed as an encapsulated formulation as hereinbefore described at a rate of 105 g/ha of herbicidally active compound, the weight ratio of isoxazole: copolyester being 1:10. The amounts of isoxazole of formula (I) and DKN were measured after 4 days in a 5 cm deep soil core around the seed or seedling.
The activity of the isoxazole on the crop and weeds was observed after 3 weeks, and found to be equal to 2% and 95% respectively.

[7] = dosing regime 2 × 6.25 g/ha (daily applications × dose)

SMILES: CS(=O)(=O)c1cc(C(F)(F)F)ccc1C(=O)c1cnoc1C1CC1 [isoxaflutole, 5-cyclopropyl-4-(2-methylsulphonyl-4-trifluoromethylbenzoyl)isoxazole]
- % Damage Setvi (Setaria viridis [1]; dosing regime 1 × 12.5 g/ha): 0%
- % Damage Setvi (Setaria viridis [1]; dosing regime 1 × 25 g/ha): 10%
- % Damage Setvi (Setaria viridis [1]; dosing regime 1 × 50 g/ha): 24%
- % Damage Setvi (Setaria viridis [1]; dosing regime 1 × 100 g/ha): 59%
- % Damage Setvi (Setaria viridis [1]; [7]): 18%
- % Damage Setvi (Setaria viridis [1]; dosing regime 2 × 12.5 g/ha): 42%
- % Damage Setvi (Setaria viridis [1]; dosing regime 2 × 25 g/ha): 44%
- % Damage Setvi (Setaria viridis [1]; dosing regime 2 × 50 g/ha): 66%
- % Damage Setvi (Setaria viridis [1]; dosing regime 4 × 6.25 g/ha): 75%
- % Damage Setvi (Setaria viridis [1]; dosing regime 4 × 12.5 g/ha): 91%
- % Damage Setvi (Setaria viridis [1]; dosing regime 4 × 25 g/ha): 77%
- % Damage Echcg (Echinochloa crus galli; dosing regime 1 × 12.5 g/ha): 0%
- % Damage Echcg (Echinochloa crus galli; dosing regime 1 × 25 g/ha): 32%
- % Damage Echcg (Echinochloa crus galli; dosing regime 1 × 50 g/ha): 84%
- % Damage Echcg (Echinochloa crus galli; dosing regime 1 × 100 g/ha): 94%
- % Damage Echcg (Echinochloa crus galli; [7]): 18%
- % Damage Echcg (Echinochloa crus galli; dosing regime 2 × 12.5 g/ha): 68%
- % Damage Echcg (Echinochloa crus galli; dosing regime 2 × 25 g/ha): 70%
- % Damage Echcg (Echinochloa crus galli; dosing regime 2 × 50 g/ha): 96%
- % Damage Echcg (Echinochloa crus galli; dosing regime 4 × 6.25 g/ha): 97%
- % Damage Echcg (Echinochloa crus galli; dosing regime 4 × 12.5 g/ha): 100%
- % Damage Echcg (Echinochloa crus galli; dosing regime 4 × 25 g/ha): 100%
- % Damage Amare (Amaranthus retroflexus [2]; dosing regime 1 × 12.5 g/ha): 0%
- % Damage Amare (Amaranthus retroflexus [2]; dosing regime 1 × 25 g/ha): 8%
- % Damage Amare (Amaranthus retroflexus [2]; dosing regime 1 × 50 g/ha): 50%
- % Damage Amare (Amaranthus retroflexus [2]; dosing regime 1 × 100 g/ha): 79%
- % Damage Amare (Amaranthus retroflexus [2]; [7]): 34%
- % Damage Amare (Amaranthus retroflexus [2]; dosing regime 2 × 12.5 g/ha): 46%
- % Damage Amare (Amaranthus retroflexus [2]; dosing regime 2 × 25 g/ha): 42%
- % Damage Amare (Amaranthus retroflexus [2]; dosing regime 2 × 50 g/ha): 78%
- % Damage Amare (Amaranthus retroflexus [2]; dosing regime 4 × 6.25 g/ha): 80%
- % Damage Amare (Amaranthus retroflexus [2]; dosing regime 4 × 12.5 g/ha): 79%
- % Damage Amare (Amaranthus retroflexus [2]; dosing regime 4 × 25 g/ha): 90%

SMILES: CS(=O)(=O)c1cc(C(F)(F)F)ccc1C(=O)c1cnoc1C1CC1 [isoxazole]
- activity of the isoxazole on the weeds (weeds): 95%
- Activity SETVI (Setaria viridis [3]; dosing regime 1 × 100 g/ha): 59
- Activity SETVI (Setaria viridis [3]; dosing regime 2 × 50 g/ha): 66
- Activity SETVI (Setaria viridis [3]; dosing regime 4 × 25 g/ha): 77
- Activity AMARE (Amaranthus retroflexus [4]; dosing regime 1 × 100 g/ha): 79
- Activity AMARE (Amaranthus retroflexus [4]; dosing regime 2 × 50 g/ha): 78
- Activity AMARE (Amaranthus retroflexus [4]; dosing regime 4 × 25 g/ha): 90
- Activity ECHCG (Echinochloa crus-galli; dosing regime 1 × 100 g/ha): 94
- Activity ECHCG (Echinochloa crus-galli; dosing regime 2 × 50 g/ha): 96
- Activity ECHCG (Echinochloa crus-galli; dosing regime 4 × 25 g/ha): 100
- Activity Maize (Maize [5]; dosing regime 1 × 100 g/ha): 8
- Activity Maize (Maize [5]; dosing regime 2 × 50 g/ha): 10
- Activity Maize (Maize [5]; dosing regime 4 × 25 g/ha): 6
- activity of the isoxazole on the crop (Maize [6]): 15%
